Assay: Inhibition of ICAM-1 in human A549 cells after 1 hr in presence of IL-1beta

IC50: 5.9 µM
SMILES: C[C@@H]1C(=O)O[C@H]2[C@H]1CC[C@@]1(C)C[C@@H](Br)C(=O)[C@@H](C)[C@H]21

Reference: BindingDB's records for doi:10.1016/j.ejmech.2019.04.066 (Shanghai Ocean University, 2019)
